{"source": "patent US6045822A", "about": "“Liposome preparations of indolocarbazole derivatives description” (Kyowa Hakko Kogyo Co., Ltd., priority 1996, dated 2000)", "origin": "cited, not measured here", "key": {"[1]": {"conditions": "in words; Cancer Res., 51, 4888 (1991)"}, "[2]": {"tested_on": "protein kinase C", "conditions": "in words; J. Antibiotics., 40, 1782 (1987)"}}, "data": [{"smiles": "CNC1CC2OC(C)(C1OC)n1c3ccccc3c3c4c(c5c6ccccc6n2c5c31)C(=O)NC4O", "note": "(centres unmarked) [UCN-01]", "values": [{"measurement": "anti-tumor activity", "setting": "[1]", "result": "has anti-tumor activity"}, {"measurement": "protein kinase C inhibitory activity", "setting": "[2]", "result": "has protein kinase C inhibitory activity"}]}]}
